Data on one compound can be found in ChEMBL document CHEMBL1221220, “Transport and signaling via the amino acid binding site of the yeast Gap1 amino acid transceptor” (Nat Chem Biol, 2009).

SMILES strings stand for the structures. Numbering of substitutions follows the chain as printed. Calls of active or inactive are those of the source. The calls are words filed in the database; no cut-off is given here.

Test [1] concerns T1, General amino-acid permease GAP1 (Saccharomyces cerevisiae), P19145 [S398C].
T1 sequence (whole entry): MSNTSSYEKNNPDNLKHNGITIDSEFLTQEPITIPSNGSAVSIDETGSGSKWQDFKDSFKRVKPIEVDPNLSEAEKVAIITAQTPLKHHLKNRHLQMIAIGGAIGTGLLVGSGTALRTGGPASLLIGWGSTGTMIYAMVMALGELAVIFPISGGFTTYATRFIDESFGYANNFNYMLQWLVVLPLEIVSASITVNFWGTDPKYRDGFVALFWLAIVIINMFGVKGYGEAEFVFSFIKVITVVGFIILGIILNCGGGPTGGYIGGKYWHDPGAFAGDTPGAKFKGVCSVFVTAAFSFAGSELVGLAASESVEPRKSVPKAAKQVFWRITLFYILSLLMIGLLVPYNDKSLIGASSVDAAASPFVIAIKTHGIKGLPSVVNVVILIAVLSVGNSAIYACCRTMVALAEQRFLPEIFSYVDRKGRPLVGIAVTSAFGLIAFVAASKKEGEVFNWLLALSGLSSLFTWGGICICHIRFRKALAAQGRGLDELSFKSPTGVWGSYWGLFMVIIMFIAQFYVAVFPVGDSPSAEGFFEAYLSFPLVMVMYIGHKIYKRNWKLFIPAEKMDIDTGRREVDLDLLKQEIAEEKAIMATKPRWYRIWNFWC
Nature of the test: Induction of yeast Gap1 S398C mutant-mediated amino acid uptake at 2 mM in presence of 10 mM MTSEA treated before compound addition.

The test system of test [2] is General amino-acid permease GAP1 (Saccharomyces cerevisiae), P19145 [I394C]. Nature of the test: Inhibition of yeast Gap1 I394C mutant-mediated trehalose activation at 10 mM.
Sequence of General amino-acid permease GAP1 (Saccharomyces cerevisiae), P19145 [I394C] (P19145 whole entry I394C): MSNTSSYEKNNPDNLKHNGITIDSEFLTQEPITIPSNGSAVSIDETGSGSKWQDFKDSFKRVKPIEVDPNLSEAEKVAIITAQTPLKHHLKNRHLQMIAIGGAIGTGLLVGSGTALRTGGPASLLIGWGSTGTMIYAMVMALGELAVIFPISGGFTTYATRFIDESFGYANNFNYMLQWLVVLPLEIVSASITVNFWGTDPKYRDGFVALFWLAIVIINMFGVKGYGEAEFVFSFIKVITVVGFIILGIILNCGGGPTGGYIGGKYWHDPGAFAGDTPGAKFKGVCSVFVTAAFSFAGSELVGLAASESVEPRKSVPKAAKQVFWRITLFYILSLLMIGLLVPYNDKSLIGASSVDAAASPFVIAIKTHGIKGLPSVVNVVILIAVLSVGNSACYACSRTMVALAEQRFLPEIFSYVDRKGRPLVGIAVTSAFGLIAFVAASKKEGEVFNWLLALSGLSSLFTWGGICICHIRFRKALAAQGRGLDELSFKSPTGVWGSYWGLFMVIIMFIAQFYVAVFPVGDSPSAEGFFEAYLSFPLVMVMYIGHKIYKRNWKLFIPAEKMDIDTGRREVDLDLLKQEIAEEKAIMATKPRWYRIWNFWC
In test [3] the test system is T2, General amino-acid permease GAP1 (Saccharomyces cerevisiae), P19145 [G390C].
T2 sequence (whole entry): T1 sequence (whole entry) with G390C, C398S
Put plainly: Activation of yeast Gap1 G390C mutant-mediated amino acid uptake at 10 mM.

The test system of test [4] is T3, General amino-acid permease GAP1 (Saccharomyces cerevisiae), P19145 [A396C].
T3 sequence (whole entry): T1 sequence (whole entry) with A396C, C398S
Put plainly: Activation of yeast Gap1 A396C mutant-mediated amino acid uptake at 10 mM.

Test [5] has as its system T4, General amino-acid permease GAP1 (Saccharomyces cerevisiae), P19145 [T400C].
T4 sequence (whole entry): T1 sequence (whole entry) with C398S, T400C
Put plainly: Activation of yeast Gap1 T400C mutant-mediated amino acid uptake at 10 mM.

For test [6], the system named is Saccharomyces cerevisiae. Nature of the test: Activation of yeast Gap1 L404 mutant-mediated amino acid uptake at 10 mM.
Test [7] relates to T1, General amino-acid permease GAP1 (Saccharomyces cerevisiae), P19145 [S398C]. Nature of the test: Induction of yeast Gap1 S398C mutant-mediated trehalose activation at 10 mM.

`NC(=O)NCCC[C@H](N)C(=O)O`: in test [1], the result was Active. Moreover, in test [2], the inhibition result was “Active”. Besides, the result in test [3], in test [4], in test [5], in test [6] and in test [7] was inactive.
